Marks after values point to notes of the source that are not given here.
Key:
Assay type in all cases: in vivo
mice (C3H strain) = experiment: Ear thickness (primary skin irritancy) after topical application, Example 1; settings: for Ear thickness compared to ethanol: 1% in ethanol
Method: The following example was performed to determine if pyrethroid compounds cause skin irritation (as indicated by ear thickness in mice). Skin irritants may contribute to promoting hair growth.
Prior to the experiment, ear thickness of mice (C3H strain, female, 16 weeks of age, n=3/group) was measured with a thickness gage (Mitsutoyo Corp.). After measuring ear thickness of both ears, 10 μL of ethanol was applied on left ear and 10 μL of a pyrethroid solution (1% pyrethroid compound in ethanol) was applied to the right ear. Ear thickness was measured for three consecutive days after administration.

mice (Sencar strain) = experiment: Ear thickness after TPA plus pyrethroid application, Example 2
Method: Another ear thickness experiment was performed. Ear thickness of mice (Sencar strain, female, 10 weeks of age, n =3/group) was measured with a thickness gage (Mitsutoyo Corp.). After measuring the thickness of both ears at the beginning of the experiment, 20 μL of 12-O-tetradecanoyl-phorbol 13-acetate (TPA) at a concentration of 10^−4 M in acetone was applied on both ears, followed by the application of 10 μL of ethanol on the left ears and 10 μL of the four compositions tested in Example 1 on the right ears (at a concentration of 1% of pyrethroid compound in ethanol solution). Again, ear thickness was monitored over three consecutive days following administration of the compositions.

mice of the C3H strain = experiment: Skin irritancy on clipped back skin, visual score, Example 3; settings: three repeated topical administration, 1% in ethanol
Method: This experiment was conducted to test the skin irritancy of the compositions of this invention on hair-growing areas of test subjects, i.e., female mice (10 weeks old) of the C3H strain (n=5 group). After clipping the hair of the back skin of mice with an electric clipper, 5 μL/cm^2 of each four composition tested in Examples 1 and 2 (at a concentration of 1% in an ethanol solution) were applied. The application was administered once a day, for 3 consecutive days. Skin irritation was evaluated by unaided visual inspection at the end of the third day.

C3H strain mice [1] = experiment: Hair growth on clipped back skin, topical daily application, Example 4; parameters: Level of hair growth (unaided visual inspection): scale not given here; settings: for Promoting hair growth: 1% topical daily; for Level of hair growth (unaided visual inspection): 1%, 5 μL/cm^2 daily, n=5/group
Method: The ability of topical administration of pyrethroid compounds to promote hair growth was assessed in female C3H strain mice (10 weeks old; n=5/group). Hair on the back skin of the mice was clipped carefully with an electric clipper. 5 μL/cm^2 of the five compositions tested in the examples above were applied to the mice daily. The level of hair growth at the applied skin areas were evaluated by unaided visual inspection at the indicated time.

C3H strain mice [2] = experiment: Hair growth on clipped back skin, repeat with minoxidil control, Example 5; parameters: Level of hair growth (unaided visual inspection): scale not given here; settings: for Promoting hair growth: concentrations of 0.1% and 1% in ethanol solutions
Method: The ability of topical administration of pyrethroid compounds to promote hair growth was assessed in female C3H strain mice (10 weeks old; n=5/group). Hair on the back skin of the mice was clipped carefully with an electric clipper. 5 μL/cm^2 of the five compositions tested in the examples above were applied to the mice daily. The level of hair growth at the applied skin areas were evaluated by unaided visual inspection at the indicated time. Cyclosporin A was used as a control.
The experiment described in Example 4 was repeated with a commercially available hair growth-promoting compound (5% minoxidil) as a control.

[3] = day 0 (before application), C3H female mice, n=3
[4] = day 1, 10 μL of 1% in ethanol on right ear, C3H mice
[5] = day 2, 10 μL of 1% in ethanol on right ear, C3H mice
[6] = day 3, 10 μL of 1% in ethanol on right ear, C3H mice
[7] = day 0 (before application), Sencar female mice, n=3
[8] = day 1, 20 μL TPA 10^−4 M in acetone then 10 μL of 1% in ethanol, Sencar mice
[9] = day 2, 20 μL TPA 10^−4 M in acetone then 10 μL of 1% in ethanol, Sencar mice
[10] = day 3, 20 μL TPA 10^−4 M in acetone then 10 μL of 1% in ethanol, Sencar mice

CC1(C)C(C=C(Cl)Cl)C1C(=O)OC(C#N)c1cccc(Oc2ccccc2)c1 (stereo not shown) [Cypermethrin, cypermethrin]
Ear thickness compared to ethanol (mice (C3H strain); C3H mice): did not increase ear thickness | Right ear thickness (mice (C3H strain); [3]): 27.7 ×0.01 mm | Right ear thickness (mice (C3H strain); [4]): 27.7 ×0.01 mm | Right ear thickness (mice (C3H strain); [5]): 27.3 ×0.01 mm | Right ear thickness (mice (C3H strain); [6]): 28.0 ×0.01 mm | Right ear thickness (mice (Sencar strain); [7]): 24.0 ×0.01 mm | Right ear thickness (mice (Sencar strain); [8]): 26.7 ×0.01 mm | Right ear thickness (mice (Sencar strain); [9]): 28.3 ×0.01 mm | Right ear thickness (mice (Sencar strain); [10]): 27.3 ×0.01 mm | Skin irritation (redness) (mice of the C3H strain): failed to cause skin irritation | Promoting hair growth (C3H strain mice [1]): effective in promoting hair growth | Level of hair growth (unaided visual inspection) (C3H strain mice [1]; Day 7): 0 | Level of hair growth (unaided visual inspection) (C3H strain mice [1]; Day 14): 0 | Level of hair growth (unaided visual inspection) (C3H strain mice [1]; Day 19): 2 | Level of hair growth (unaided visual inspection) (C3H strain mice [1]; Day 29): 4 | Level of hair growth (unaided visual inspection) (C3H strain mice [1]; Day 36): 5 | Level of hair growth (unaided visual inspection) (C3H strain mice [2]; 0.01%, Week 1): 0 | Level of hair growth (unaided visual inspection) (C3H strain mice [2]; 0.01%, Week 2): 0 | Level of hair growth (unaided visual inspection) (C3H strain mice [2]; 0.01%, Week 3): 0 | Level of hair growth (unaided visual inspection) (C3H strain mice [2]; 0.01%, Week 4): 0 | Level of hair growth (unaided visual inspection) (C3H strain mice [2]; 0.01%, Week 5): 0 | Level of hair growth (unaided visual inspection) (C3H strain mice [2]; 0.01%, Week 6): 0 | Level of hair growth (unaided visual inspection) (C3H strain mice [2]; 0.1%, Week 1): 0 | Level of hair growth (unaided visual inspection) (C3H strain mice [2]; 0.1%, Week 2): 0 | Level of hair growth (unaided visual inspection) (C3H strain mice [2]; 0.1%, Week 3): 5 | Level of hair growth (unaided visual inspection) (C3H strain mice [2]; 0.1%, Week 4): 5 | Level of hair growth (unaided visual inspection) (C3H strain mice [2]; 0.1%, Week 5): 5 | Level of hair growth (unaided visual inspection) (C3H strain mice [2]; 0.1%, Week 6): 5 | Level of hair growth (unaided visual inspection) (C3H strain mice [2]; 1%, Week 1): 0 | Level of hair growth (unaided visual inspection) (C3H strain mice [2]; 1%, Week 2): 0 | Level of hair growth (unaided visual inspection) (C3H strain mice [2]; 1%, Week 3): 5 | Level of hair growth (unaided visual inspection) (C3H strain mice [2]; 1%, Week 4): 5 | Level of hair growth (unaided visual inspection) (C3H strain mice [2]; 1%, Week 5): 5 | Level of hair growth (unaided visual inspection) (C3H strain mice [2]; 1%, Week 6): 5 | Promoting hair growth (C3H strain mice [2]): effective in promoting hair growth

Nc1cc(N2CCCCC2)nc(N)[n+]1[O-] [Minoxidil, minoxidil]
Level of hair growth (unaided visual inspection) (C3H strain mice [2]; 5%, Week 1): 0 | Level of hair growth (unaided visual inspection) (C3H strain mice [2]; 5%, Week 2): 0 | Level of hair growth (unaided visual inspection) (C3H strain mice [2]; 5%, Week 3): 2 | Level of hair growth (unaided visual inspection) (C3H strain mice [2]; 5%, Week 4): 3 | Level of hair growth (unaided visual inspection) (C3H strain mice [2]; 5%, Week 5): 4 | Level of hair growth (unaided visual inspection) (C3H strain mice [2]; 5%, Week 6): 4

CC1(C)C(C=C(Cl)Cl)C1C(=O)OCc1cccc(Oc2ccccc2)c1 (stereo not shown) [Permethrin, permethrin]
Ear thickness compared to ethanol (mice (C3H strain); C3H mice): did not increase ear thickness | Right ear thickness (mice (C3H strain); [3]): 27.3 ×0.01 mm | Right ear thickness (mice (C3H strain); [4]): 27.7 ×0.01 mm | Right ear thickness (mice (C3H strain); [5]): 27.7 ×0.01 mm | Right ear thickness (mice (C3H strain); [6]): 28.3 ×0.01 mm | Right ear thickness (mice (Sencar strain); [7]): 23.3 ×0.01 mm | Right ear thickness (mice (Sencar strain); [8]): 27.3 ×0.01 mm | Right ear thickness (mice (Sencar strain); [9]): 27.0 ×0.01 mm | Right ear thickness (mice (Sencar strain); [10]): 27.7 ×0.01 mm | Skin irritation (redness) (mice of the C3H strain): failed to cause skin irritation | Level of hair growth (unaided visual inspection) (C3H strain mice [1]; Day 7): 0 | Level of hair growth (unaided visual inspection) (C3H strain mice [1]; Day 14): 0 | Level of hair growth (unaided visual inspection) (C3H strain mice [1]; Day 19): 0 | Level of hair growth (unaided visual inspection) (C3H strain mice [1]; Day 29): 0 | Level of hair growth (unaided visual inspection) (C3H strain mice [1]; Day 36): 0 | Level of hair growth (unaided visual inspection) (C3H strain mice [2]; 0.01%, Week 1): 0 | Level of hair growth (unaided visual inspection) (C3H strain mice [2]; 0.01%, Week 2): 0 | Level of hair growth (unaided visual inspection) (C3H strain mice [2]; 0.01%, Week 3): 0 | Level of hair growth (unaided visual inspection) (C3H strain mice [2]; 0.01%, Week 4): 0 | Level of hair growth (unaided visual inspection) (C3H strain mice [2]; 0.01%, Week 5): 0 | Level of hair growth (unaided visual inspection) (C3H strain mice [2]; 0.01%, Week 6): 0 | Level of hair growth (unaided visual inspection) (C3H strain mice [2]; 0.1%, Week 1): 0 | Level of hair growth (unaided visual inspection) (C3H strain mice [2]; 0.1%, Week 2): 0 | Level of hair growth (unaided visual inspection) (C3H strain mice [2]; 0.1%, Week 3): 0 | Level of hair growth (unaided visual inspection) (C3H strain mice [2]; 0.1%, Week 4): 0 | Level of hair growth (unaided visual inspection) (C3H strain mice [2]; 0.1%, Week 5): 0 | Level of hair growth (unaided visual inspection) (C3H strain mice [2]; 0.1%, Week 6): 0 | Level of hair growth (unaided visual inspection) (C3H strain mice [2]; 1%, Week 1): 0 | Level of hair growth (unaided visual inspection) (C3H strain mice [2]; 1%, Week 2): 0 | Level of hair growth (unaided visual inspection) (C3H strain mice [2]; 1%, Week 3): 0 | Level of hair growth (unaided visual inspection) (C3H strain mice [2]; 1%, Week 4): 0 | Level of hair growth (unaided visual inspection) (C3H strain mice [2]; 1%, Week 5): 0 | Level of hair growth (unaided visual inspection) (C3H strain mice [2]; 1%, Week 6): 1

CC(C)C(C(=O)OC(C#N)c1cccc(Oc2ccccc2)c1)c1ccc(Cl)cc1 (stereo not shown) [Fenvalerate, fenvalerate]
Ear thickness compared to ethanol (mice (C3H strain); C3H mice): did not increase ear thickness | Right ear thickness (mice (C3H strain); [3]): 27.3 ×0.01 mm | Right ear thickness (mice (C3H strain); [4]): 28.0 ×0.01 mm | Right ear thickness (mice (C3H strain); [5]): 28.0 ×0.01 mm | Right ear thickness (mice (C3H strain); [6]): 27.0 ×0.01 mm | Right ear thickness (mice (Sencar strain); [7]): 24.0 ×0.01 mm | Right ear thickness (mice (Sencar strain); [8]): 26.3 ×0.01 mm | Right ear thickness (mice (Sencar strain); [9]): 26.7 ×0.01 mm | Right ear thickness (mice (Sencar strain); [10]): 26.7 ×0.01 mm | Skin irritation (redness) (mice of the C3H strain): failed to cause skin irritation | Promoting hair growth (C3H strain mice [1]): effective in promoting hair growth | Level of hair growth (unaided visual inspection) (C3H strain mice [1]; Day 7): 0 | Level of hair growth (unaided visual inspection) (C3H strain mice [1]; Day 14): 0 | Level of hair growth (unaided visual inspection) (C3H strain mice [1]; Day 19): 1 | Level of hair growth (unaided visual inspection) (C3H strain mice [1]; Day 29): 4 | Level of hair growth (unaided visual inspection) (C3H strain mice [1]; Day 36): 4 | Level of hair growth (unaided visual inspection) (C3H strain mice [2]; 0.01%, Week 1): 0 | Level of hair growth (unaided visual inspection) (C3H strain mice [2]; 0.01%, Week 2): 0 | Level of hair growth (unaided visual inspection) (C3H strain mice [2]; 0.01%, Week 3): 0 | Level of hair growth (unaided visual inspection) (C3H strain mice [2]; 0.01%, Week 4): 0 | Level of hair growth (unaided visual inspection) (C3H strain mice [2]; 0.01%, Week 5): 0 | Level of hair growth (unaided visual inspection) (C3H strain mice [2]; 0.01%, Week 6): 0 | Level of hair growth (unaided visual inspection) (C3H strain mice [2]; 0.1%, Week 1): 0 | Level of hair growth (unaided visual inspection) (C3H strain mice [2]; 0.1%, Week 2): 0 | Level of hair growth (unaided visual inspection) (C3H strain mice [2]; 0.1%, Week 3): 5 | Level of hair growth (unaided visual inspection) (C3H strain mice [2]; 0.1%, Week 4): 5 | Level of hair growth (unaided visual inspection) (C3H strain mice [2]; 0.1%, Week 5): 5 | Level of hair growth (unaided visual inspection) (C3H strain mice [2]; 0.1%, Week 6): 5 | Level of hair growth (unaided visual inspection) (C3H strain mice [2]; 1%, Week 1): 0 | Level of hair growth (unaided visual inspection) (C3H strain mice [2]; 1%, Week 2): 0* | Level of hair growth (unaided visual inspection) (C3H strain mice [2]; 1%, Week 3): 3* | Level of hair growth (unaided visual inspection) (C3H strain mice [2]; 1%, Week 4): 5 | Level of hair growth (unaided visual inspection) (C3H strain mice [2]; 1%, Week 5): 5 | Level of hair growth (unaided visual inspection) (C3H strain mice [2]; 1%, Week 6): 5 | Promoting hair growth (C3H strain mice [2]): effective in promoting hair growth

— patent US20010027213A1, “Use of pyrethroid compounds to promote hair growth” (priority 1998, published 2001)
